Converted amounts (≈) assume the structure as drawn.
Columns and labels:
[1] = Thermodynamic aqueous solubility; type: physicochemical; settings: for Equilibrated form in suspension: XRPD of equilibrated solids after the solubility measurement in water, ambient temperature
Procedure: The thermodynamic solubility values of Compound 5 using Crystalline Forms I and II as starting forms were determined in water. In one vial, 10 mg of Crystalline Form I of Compound 5 and 1 mL of water were stirred at ambient temperature for 24 hours at 400 RPM. In a separate vial, 10 mg of Crystalline Form II of Compound 5 was suspended in 1 mL of water, and then the suspension was stirred at ambient temperature for 48 hours at 200 RPM. The equilibrated solids were then separated by dispensing 500 μL of the suspension into a 1.5-mL centrifuge tube, and then centrifuged for 5 minutes at 13,200 RPM using an Eppendorf 5415D centrifuge. As much of the supernatant as possible was decanted using a Pasteur pipette and dispensed into a new 1.5-mL centrifuge tube. The samples were again centrifuged for 5 minutes at 13,200 RPM using the same instrument. The Compound 5 content and pH values of the supernatant were determined by HPLC and pH meter, respectively. The pH of the supernatant was determined to be 9.16.

[2] = Wet milling to nanocrystals: particle size and crystal form stability (XRPD); type: physicochemical; settings: XRPD of milled samples compared with neat form
Procedure: Crystalline Forms of Compound 5 were wet-milled in the presence of stabilizers that enable the preparation of mucus-penetrating particles (MPP) or nanocrystals. The same milling process was employed for all samples. Milling media, specifically 0.5 mL bulk volume of 1-mm ceria-stabilized zirconium oxide beads, was added to a glass vial. Approximately 25 mg of Compound 5 Crystalline Form I or Crystalline Form II and 0.475 mL of milling solution, as specified in each example, were then added to the vial yielding a slurry of 5% Compound 5. A magnetic stir bar was used to agitate the beads, stirring at approximately 500 rpm.
Neat Crystalline Form I of Compound 5 synthesized according to Example 1 was wet-milled in the presence of PLURONIC® F127 (also known as Poloxamer 407) or polyvinyl alcohol with an average MW of 31 kDa and average hydrolysis of 88% (PVA), and a buffer.
Loss of crystallinity and possible form change to amorphous and Crystalline Form II occurred during milling.
Neat Crystalline Form II of Compound 5 prepared in accordance with Example 2 was wet-milled the presence of PLURONIC® F127 (also known as Poloxamer 407) and a buffer.
Approximately 100 μL of Sample A was transferred directly onto the surface of the sample XRPD holder, then was allowed to air dry.

Cc1cc(C(=O)Nc2cc(Oc3ccc4nc(NC(=O)CCCN5CCC6(CC5)COC6)cn4n3)ccc2C)n(C)n1 [Crystalline Form I, N-(5-((2-(4-(2-oxa-7-azaspiro[3.5]nonan-7-yl)butanamido)imidazo[1,2-b]pyridazin-6-yl)oxy)-2-methylphenyl)-1,3-dimethyl-1H-pyrazole-5-carboxamide]
Equilibrated form in suspension [1]: converted to amorphous
Equilibrated form in suspension ([1]; listed as I): Amorphous
solubility ([1]; water, 22 °C, pH 9.16, water, thermodynamic from solid, ambient temperature (ca. 22° C.), 10 mg in 1 mL stirred 24 h (Form I) or 48 h (Form II), supernatant pH 9.16, HPLC): 27.8 µg/mL (≈ 48.5 µM)
Stability of crystalline form to the milling process ([2]; listed as Crystalline Form I of Compound 5): not stable to the milling process

Cc1cc(C(=O)Nc2cc(Oc3ccc4nc(NC(=O)CCCN5CCC6(CC5)COC6)cn4n3)ccc2C)n(C)n1 [Crystalline Form II, N-(5-((2-(4-(2-oxa-7-azaspiro[3.5]nonan-7-yl)butanamido)imidazo[1,2-b]pyridazin-6-yl)oxy)-2-methylphenyl)-1,3-dimethyl-1H-pyrazole-5-carboxamide]
Equilibrated form in suspension [1]: stable
Solubility in Water ([1]; water, ambient temperature (ca. 22° C.), 10 mg in 1 mL stirred 24 h (Form I) or 48 h (Form II), supernatant pH 9.16, HPLC): 15.76 µg/mL (≈ 27.5 µM)
Stability of crystalline form to the milling process ([2]; listed as Crystalline Form II of Compound 5): stable to the milling process
